Results on 37 compounds are retold here after PubChem BioAssay (NCI).

Test systems include KM20L2 colon; M19-MEL melanoma; RXF-631 renal; XF 498 CNS; DMS 273 small cell lung; MDA-MB-231 breast; MDA-N; MCF7 breast; T-47D breast.
Holding throughout (test): growth of human tumour cells (NCI), 48 h

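Grown in 96-well plates, cells were treated for 48 hours with each compound at five concentrations. Insufficient inhibition: endpoint recorded as highest concentration tested. The concentration for 50% growth inhibition is given as GI50. The concentration for full growth arrest is given as TGI.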

`O=C1CCCC/C1=C/C=C/c1ccccc1`: the TGI in the assay on KM20L2 colon, in the assay on M19-MEL melanoma, in the assay with RXF-631 renal and in the assay with XF 498 CNS was over 100 µM throughout.
For the compound `CN(C)CCn1c2ccccc2c2nc3cc4ccccc4cc3nc21`, the TGI with DMS 273 small cell lung came to 14.6 µM; in the assay on KM20L2 colon, 15.6 µM; with M19-MEL melanoma, 21 µM; in the assay with XF 498 CNS, 21.4 µM.
As to `Cc1ccc(C)c(NC(=O)c2cc(-c3ccc([N+](=O)[O-])cc3)nc(N)n2)c1`, the TGI in the assay with DMS 273 small cell lung, in the assay on KM20L2 colon, in the assay with M19-MEL melanoma and with XF 498 CNS was over 100 µM in each case.
Turning to `O=c1cc(Cl)nc[nH]1`, the TGI in the assay with DMS 273 small cell lung, in the assay on KM20L2 colon, in the assay on M19-MEL melanoma and in the assay with RXF-631 renal was over 100 µM throughout.
For the compound `O=c1ccccc2cccc(O)c12`, the TGI in the assay on DMS 273 small cell lung, in the assay with KM20L2 colon, in the assay with M19-MEL melanoma, with RXF-631 renal and in the assay with XF 498 CNS was over 100 µM in each case.
For `Cc1c(C(=O)/C=C/c2ccc(Cl)cc2)[n+](=O)c2ccccc2n1[O-]`, the TGI with DMS 273 small cell lung was 25.4 µM; in the assay with KM20L2 colon, 21.4 µM; in the assay on M19-MEL melanoma, 30 µM; in the assay on RXF-631 renal, over 100 µM.
On to `Cc1ccc(NC(=O)/C(CC(=O)c2c[n+](=O)c3ccccc3n2O)=N\NC(=O)C[n+]2ccccc2)cc1`, for which the TGI with DMS 273 small cell lung, with KM20L2 colon, in the assay with M19-MEL melanoma, in the assay on RXF-631 renal and with XF 498 CNS was over 100 µM in each case.
As for `C(=C\c1csnn1)/c1cccnc1`, the TGI with KM20L2 colon, in the assay with M19-MEL melanoma, with RXF-631 renal and in the assay on XF 498 CNS was over 100 µM throughout.
With `CC(c1ccc(Br)cc1)C(C(=O)O)C(=O)O` (configuration not stated), the TGI with DMS 273 small cell lung, in the assay with KM20L2 colon and with M19-MEL melanoma was over 100 µM each time.
In the case of `CCOC(=O)/N=C(\N)SCc1ccccc1`, the TGI in the assay on DMS 273 small cell lung, with KM20L2 colon, with M19-MEL melanoma, in the assay with RXF-631 renal and with XF 498 CNS was over 100 µM throughout.
In the case of `CC1=CC(C)(C)N=C2SC(c3ccc(Cl)cc3)=NN12`, the TGI in the assay with DMS 273 small cell lung is over 100 µM; with KM20L2 colon, over 100 µM; in the assay with M19-MEL melanoma, over 100 µM; in the assay on XF 498 CNS, 51.8 µM.
Take `COc1ccc(C(c2ccc(C(C)C)cc(=O)c2O)c2c(O)cc3oc(-c4ccccc4)cc(=O)c3c2O)cc1` (configuration not stated): the TGI with DMS 273 small cell lung is 22 µM; in the assay on KM20L2 colon, over 100 µM; with M19-MEL melanoma it was 26.7 µM; in the assay with RXF-631 renal, over 100 µM; in the assay on XF 498 CNS it was 37 µM.
As to `Cc1cc(NS(=O)(=O)c2ccc(NC(=O)c3cccc4c(N)c5ccccc5nc34)cc2)no1`, the TGI in the assay with DMS 273 small cell lung is 49 µM; with KM20L2 colon, over 100 µM; in the assay on M19-MEL melanoma it was 42.1 µM; in the assay on RXF-631 renal, 38.7 µM; with XF 498 CNS, 55.5 µM.
With `O=c1/c(=C/c2ccc(Cl)cc2Cl)sc2nc3ccccc3n12`, the TGI in the assay with DMS 273 small cell lung, in the assay on KM20L2 colon, in the assay with M19-MEL melanoma, with RXF-631 renal and in the assay on XF 498 CNS was over 100 µM in each case.
Regarding `CCCCCCCCCCCC(=O)OCC1OC(n2cc(F)c(=O)[nH]c2=O)C(N)C(OC(=O)CCCCCCCCCCC)C1O` (configuration not stated), the TGI with DMS 273 small cell lung, in the assay on KM20L2 colon and with M19-MEL melanoma was over 100 µM throughout.
Take `N=C(N)SCCc1cn2ccccc2n1`: the TGI with DMS 273 small cell lung, with M19-MEL melanoma and with XF 498 CNS was over 100 µM each time.
In the case of `Nc1ccc(Nc2nc(F)nc(-c3c4ccccc4c4n3CCS4)n2)cc1`, the TGI in the assay with DMS 273 small cell lung was determined as 24 µM; in the assay with KM20L2 colon it was 33.5 µM; with M19-MEL melanoma it was 40.5 µM; in the assay on RXF-631 renal it was 32.3 µM; with XF 498 CNS, 20.3 µM.
On to `CC(=O)OC12c3ccccc3C1CCCCCC21OCCCO1` (configuration not stated), for which the TGI with DMS 273 small cell lung, with KM20L2 colon and in the assay with M19-MEL melanoma was over 100 µM each time.
With `O=C(OCCOCBr)c1ccccc1`, the TGI in the assay with DMS 273 small cell lung, in the assay on KM20L2 colon and with RXF-631 renal was over 100 µM each time.
For the compound `O=C(CCC(=O)Nc1ccc(Cl)cc1)CC(=O)c1ccc(F)cc1`, the TGI with DMS 273 small cell lung, with KM20L2 colon and in the assay on XF 498 CNS was over 100 µM in each case.
For `O=c1[nH]c(Br)nc2c(Br)c[nH]c12`, the TGI in the assay on DMS 273 small cell lung, in the assay with KM20L2 colon, in the assay with M19-MEL melanoma, in the assay on RXF-631 renal and in the assay with XF 498 CNS was over 100 µM throughout.
`O=C(Nc1c(-c2nc3ccccc3[nH]2)sc(=S)n1-c1ccccc1)c1ccccc1`: the TGI with DMS 273 small cell lung, with M19-MEL melanoma and in the assay on RXF-631 renal was over 100 µM in each case.
Consider `C=C1CC(CCCl)(c2ccccc2)OC1=O` (configuration not stated), for which the TGI in the assay on DMS 273 small cell lung was over 100 µM; with KM20L2 colon it was over 100 µM; in the assay with M19-MEL melanoma, over 54.9 µM; with RXF-631 renal, over 62.8 µM; in the assay on XF 498 CNS, over 100 µM.
On to `O=c1c2ccc3cccc4c(=O)cc(c5ccccc15)-c2c34`, for which the TGI in the assay with DMS 273 small cell lung was over 100 µM; in the assay on KM20L2 colon, over 100 µM; in the assay with M19-MEL melanoma, 54 µM.
`CCC[CH2][Sn]([CH2]CCC)([O]C(=O)c1cccc(F)c1)[O]C(=O)c1cccc(F)c1`: the GI50 in the assay with DMS 273 small cell lung was 1.39 µM; with KM20L2 colon, 1.47 µM; with M19-MEL melanoma, 0.575 µM; in the assay on RXF-631 renal, 0.209 µM; in the assay on XF 498 CNS, 0.559 µM. The TGI with DMS 273 small cell lung came out at 3.4 µM; in the assay on KM20L2 colon, 2.91 µM; in the assay on M19-MEL melanoma it was 1.93 µM; in the assay with RXF-631 renal, 0.486 µM; in the assay on XF 498 CNS, 2.04 µM.
For the compound `CC(C)C(=O)N[C@@H](C)C(=O)N(Cc1ccc2ccccc2c1)N=O`, the TGI in the assay with DMS 273 small cell lung, with KM20L2 colon, with M19-MEL melanoma and in the assay on XF 498 CNS was over 100 µM in each case.
Regarding `O=Cc1ccc(-c2ccc(-c3ccc(C=O)s3)o2)s1`, the TGI with DMS 273 small cell lung, in the assay with KM20L2 colon, with M19-MEL melanoma, in the assay on MDA-MB-231 breast and in the assay on MDA-N was over 100 µM each time.
Turning to `O=C(O)/C(=C/c1ccccc1[N+](=O)[O-])c1ccccc1`, the TGI in the assay with DMS 273 small cell lung, with KM20L2 colon, in the assay with M19-MEL melanoma, in the assay on RXF-631 renal and with XF 498 CNS was over 100 µM each time.
As for `N=C(c1ccccc1)N(O)C1CCCCC1`, the TGI in the assay on DMS 273 small cell lung, in the assay with KM20L2 colon and in the assay with M19-MEL melanoma was over 100 µM in each case.
Turning to `CC(=O)OC1CCn2nnc(COC(=O)NC(C)C)c21` (configuration not stated), the TGI in the assay on KM20L2 colon, with RXF-631 renal and with XF 498 CNS was over 100 µM each time.
Take `O=C(O)C1C2CC3C(OC(=O)C31)C2Br` (configuration not stated): the TGI in the assay on MCF7 breast, with MDA-MB-231 breast, in the assay on MDA-N and in the assay with T-47D breast was over 100 µM each time.
Turning to `Cn1c(CCC#N)nc2ccc(Br)cc2c1=O`, the TGI in the assay with KM20L2 colon, in the assay with RXF-631 renal and in the assay on XF 498 CNS was over 100 µM throughout.
Take `CCCNCc1nc2ccc(Br)cc2c(=O)n1CCC`: the TGI in the assay with DMS 273 small cell lung was determined as 25.2 µM; in the assay on KM20L2 colon it was 34.3 µM; in the assay on M19-MEL melanoma it was 26.1 µM; in the assay with RXF-631 renal, 19 µM; in the assay with XF 498 CNS it was 30.9 µM.
With `O=C1C=C(Nc2ccccc2C(=O)CC(=O)C(=O)Nc2cccc(C(F)(F)F)c2)c2ccccc2C1=O`, the TGI was over 94.4 µM with DMS 273 small cell lung; over 100 µM with KM20L2 colon; 8.48 µM with M19-MEL melanoma; 28.9 µM in the assay on MCF7 breast; over 91.1 µM with MDA-MB-231 breast; 26.7 µM with MDA-N. Further, the TGI in the assay on RXF-631 renal was over 100 µM; in the assay on T-47D breast, over 100 µM; with XF 498 CNS it was 48.7 µM.
Take `Cc1ccccc1C(=O)Oc1ccc(Oc2ccccc2)cc1`: the TGI in the assay on DMS 273 small cell lung, in the assay with KM20L2 colon, with M19-MEL melanoma and with XF 498 CNS was over 100 µM in each case.
`COc1ccc2c3c1C(=O)CCC3CO2` (configuration not stated): the TGI in the assay on DMS 273 small cell lung, in the assay on KM20L2 colon, in the assay on M19-MEL melanoma, in the assay with RXF-631 renal and in the assay on XF 498 CNS was over 100 µM throughout.
Regarding `CC(=O)N1CC2Nc3ccccc3C2CC1CO` (configuration not stated), the TGI in the assay on DMS 273 small cell lung, in the assay on KM20L2 colon, in the assay on M19-MEL melanoma, with RXF-631 renal and in the assay on XF 498 CNS was over 100 µM each time.
